Legend:
db/db mice = experiment: Antidiabetic and hypolipidaemiant activity, oral, in db/db mice; format: in vivo; settings: oral 20 mg/kg/day for 15 days
Procedure: The antidiabetic and hypolipidaemiant activity of the compounds was determined orally in db/db mice.
16 week-old db/db mice are treated orally for 15 days with the compound of Example 5 (20 mg/kg/day). Each group studied comprises seven animals. After treatment for 15 days, retro-orbital samples are taken after a mild anaesthesia and fasting for 4 hours.
The following parameters were measured:
Glycaemia assay (glucose oxidase) and assay of the lipid parameters on the sera at D15 (COBAS): triglycerides, total cholesterol (CHOL), the HDL cholesterol (HDL-C) and the free fatty acids (FFA) (BioMérieux and Waco Chemicals assay kit).
The measurements given represent mean values±standard error.

[1] = system: vector expressing Gal4 alone; experiment: Luciferase reporter control without PPAR ligand binding region in CV-1 cells; format: cell-based; settings: in the presence of the product
Description: CV-1 cells (monkey kidney cells) are co-transfected with an expression vector for the chimeric proteins PPARα-Gal4 or PPARγ-Gal4 and with a “reporter” plasmid which allows the expression of the luciferase gene placed under the control of a promoter containing Gal4 response elements. The cells are inoculated in 96-zwell microplates and co-transfected using a commercial reagent with the reporter plasmid (pG5-tk-pGL3) and the expression vector for the chimeric protein (PPARα-Gal4 or PPARγ-Gal4). After incubating for 4 hours, whole culture medium (containing 10% foetal calf serum) is added to the wells. After 24 hours, the medium is removed and replaced with whole medium containing the test products (50 μM final). The products are left in contact with the cells for 18 hours. The cells are then lysed and the ludferase activity is measured using a luminometer. A PPAR activation factor can then be calculated by means of the activation of the expression of the reporter gene induced by the product (relative to the control cells that have not received any product). […] In the absence of the binding region for the PPARα or γ ligand (vector expressing Gal4 alone), the luciferase activity measured in the presence of this product is zero.

[2] = biological target: T1, chimeric protein PPARγ-Gal4 (Homo sapiens, UniProt P37231); experiment: PPAR activation, Gal4 chimera luciferase reporter in co-transfected CV-1 cells; format: cell-based; settings: 50 μM, 18 hours contact
T1 construct: Gal4 (fusion partner); expressed in transfected cells; host or cells: CV-1 cells (monkey kidney cells)
T1 sequence (P37231 238-503 limits assumed): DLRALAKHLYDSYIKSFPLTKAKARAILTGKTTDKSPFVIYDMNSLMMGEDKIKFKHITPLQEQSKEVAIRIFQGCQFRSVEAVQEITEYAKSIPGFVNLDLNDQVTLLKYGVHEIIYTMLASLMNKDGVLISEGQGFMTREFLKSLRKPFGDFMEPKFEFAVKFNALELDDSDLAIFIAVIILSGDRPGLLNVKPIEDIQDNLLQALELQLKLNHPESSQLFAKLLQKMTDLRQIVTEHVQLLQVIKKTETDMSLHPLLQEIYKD
Procedure: (§1) The measurement of the PPAR activation was performed according to a technique described by Lehmann et al. (1995, J. Biol. Chem. 270: 12953-12956).
(§2) CV-1 cells (monkey kidney cells) are co-transfected with an expression vector for the chimeric proteins PPARα-Gal4 or PPARγ-Gal4 and with a “reporter” plasmid which allows the expression of the luciferase gene placed under the control of a promoter containing Gal4 response elements.
(§3) The cells are inoculated in 96-zwell microplates and co-transfected using a commercial reagent with the reporter plasmid (pG5-tk-pGL3) and the expression vector for the chimeric protein (PPARα-Gal4 or PPARγ-Gal4). After incubating for 4 hours, whole culture medium (containing 10% foetal calf serum) is added to the wells. After 24 hours, the medium is removed and replaced with whole medium containing the test products (50 μM final). The products are left in contact with the cells for 18 hours. The cells are then lysed and the ludferase activity is measured using a luminometer. A PPAR activation factor can then be calculated by means of the activation of the expression of the reporter gene induced by the product (relative to the control cells that have not received any product).

[3] = biological target: T2, chimeric protein PPARα-Gal4 (Homo sapiens, UniProt Q07869); experiment: as above; format: cell-based; settings: 50 μM, 18 hours contact
T2 construct: Gal4 (fusion partner); expressed in transfected cells; host or cells: CV-1 cells (monkey kidney cells)
T2 sequence (Q07869 239-466 limits assumed): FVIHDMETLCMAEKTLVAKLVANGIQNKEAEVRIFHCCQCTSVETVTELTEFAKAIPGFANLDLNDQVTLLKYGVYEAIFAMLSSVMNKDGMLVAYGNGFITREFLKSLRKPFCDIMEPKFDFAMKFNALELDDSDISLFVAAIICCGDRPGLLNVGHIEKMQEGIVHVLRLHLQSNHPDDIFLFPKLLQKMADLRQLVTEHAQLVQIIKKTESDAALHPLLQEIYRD
Procedure: as §1, §2, §3

[4] = serum D15, mean ± standard error

PPAR activation factor (reporter gene expression relative to control cells) [2]: six | PPAR activation factor (reporter gene expression relative to control cells) [3]: nine | melting point: 108 to 110 °C
SMILES: O=C(O)C(CCSc1ccccc1)Oc1ccc(C(F)(F)F)cc1 (centres unmarked) [Example 5, 4-phenylsulphanyl-2-(4-trifluoromethylphenoxy)butyric acid]
CHOL, % variation relative to the control (db/db mice; D15, * p < 0.05 vs control): 47* % | FFA, % variation relative to the control (db/db mice; D15, * p < 0.05 vs control): −38* % | Glycaemia, % variation relative to the control (db/db mice; D15, * p < 0.05 vs control): −59* % | HDL-C, % variation relative to the control (db/db mice; D15, * p < 0.05 vs control): 36* % | Triglycerides, % variation relative to the control (db/db mice; D15, * p < 0.05 vs control): −47* % | Glycaemia (db/db mice; D15, fasting 4 hours, mean ± standard error): 11.1 ± 3.3 mM | CHOL (total cholesterol) (db/db mice; [4]): 5.4 ± 0.9 mM | FFA (free fatty acids) (db/db mice; [4]): 0.4 ± 0.0 mM | HDL-C (db/db mice; [4]): 4.3 ± 0.6 mM | Triglycerides (db/db mice; [4]): 0.7 ± 0.1 mM | luciferase activity in the absence of the binding region for the PPARα or γ ligand [1]: zero

— US7491747B2, “Butyric acid derivatives” (Merck Patent GmbH, priority 2001, dated 2009)
